biological target: T1, human GPR40 (Homo sapiens, UniProt O14842); test: Inositol Phosphate Turnover (IP1) Assay; type: cell-based; conditions: HEK cells stably expressing human GPR40; CisBio IP-One kit; 60 minutes at 37 degrees; read-out: Human IP1 EC50
T1 construct: expressed in transfected cells
Summary of the method: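 HEK cells stably expressing GPR40, plated 16 h, then exposed to compound in stimulation buffer for 60 min at 37 °C. IP1 accumulation read by HTRF IP-One detection after 60 min at RT.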

T1 sequence (O14842 whole entry): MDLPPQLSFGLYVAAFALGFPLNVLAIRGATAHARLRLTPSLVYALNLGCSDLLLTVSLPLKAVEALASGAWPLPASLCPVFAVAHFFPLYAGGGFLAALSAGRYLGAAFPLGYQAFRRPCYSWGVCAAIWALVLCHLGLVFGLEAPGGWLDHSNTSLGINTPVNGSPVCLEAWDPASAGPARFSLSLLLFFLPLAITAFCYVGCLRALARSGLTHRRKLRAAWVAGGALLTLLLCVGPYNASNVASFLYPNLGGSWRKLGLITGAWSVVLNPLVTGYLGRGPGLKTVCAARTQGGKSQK

Compared with `C[C@H](C(=O)O)[C@H](c1ccc2c(c1)OC1(CC2)CCN(c2cccc3c2c(C(F)(F)F)nn3C)CC1)C1CC1` [Example 36, (2S,3R)-3-cyclopropyl-2-methyl-3-(1′-(1-methyl-3-(trifluoromethyl)-1H-indazol-4-yl)spiro[chroman-2,4′-piperidin]-7-yl)propanoic Acid], `C[C@H](C(=O)O)[C@H](c1ccc2c(c1)OC1(CC2)CCN(c2ccc3c(C(F)(F)F)nn(C)c3c2)CC1)C1CC1` [Example 37, (2S,3R)-3-cyclopropyl-2-methyl-3-(1′-(1-methyl-3-(trifluoromethyl)-1H-indazol-6-yl)spiro[chroman-2,4′-piperidin]-7-yl)-propanoic acid] is 140-fold higher in EC50: 4.78 nM for the first, 683 nM for the second.

Going from `C[C@H](C(=O)O)[C@H](c1ccc2c(c1)OC1(CC2)CCN(c2ccc3c(c2)c(C(F)(F)F)nn3C)CC1)C1CC1` [Example 38, (2S,3R)-3-cyclopropyl-2-methyl-3-(1′-(1-methyl-3-(trifluoromethyl)-1H-indazol-5-yl)spiro[chroman-2,4′-piperidin]-7-yl)propanoic acid] to `C[C@H](C(=O)O)[C@H](c1ccc2c(c1)OC1(CC2)CCN(c2ccnc(C(F)(F)F)c2)CC1)C1CC1` [Example 40, (2S,3R)-3-cyclopropyl-2-methyl-3-(1′-(2-(trifluoromethyl)pyridin-4-yl)spiro-[chroman-2,4′-piperidin]-7-yl)propanoic Acid], the EC50 falls from 506 nM to 167 nM (3-fold).

First: C[C@H](C(=O)O)[C@H](c1ccc2c(c1)OC1(CC2)CCN(c2cncc(C(F)(F)F)c2)CC1)C1CC1 [Example 39, (2S,3R)-3-cyclopropyl-2-methyl-3-(1′-(5-(trifluoromethyl)pyridin-3-yl)Spiro [chroman-2,4′-piperidin]-7-yl)propanoic Acid]
Second: C[C@H](C(=O)O)[C@H](c1ccc2c(c1)OC1(CC2)CCN(c2cccc(C(F)(F)F)c2)CC1)C1CC1 [Example 41, (2S,3R)-3-cyclopropyl-2-methyl-3-(1′-(3-(trifluoromethyl)phenyl)spiro[chroman-2,4′-piperidin]-7-yl)propanoic acid]
The EC50 of the first is 44-fold higher: 566 nM for the first, 12.9 nM for the second. The second is the more potent here.

Going from `C[C@H](C(=O)O)[C@H](c1ccc2c(c1)OC1(CC2)CCN(S(=O)(=O)c2ccc(Cl)cc2Cl)CC1)C1CC1` [Example 45] to `C[C@H](C(=O)O)[C@H](c1ccc2c(c1)OC1(CC2)CCN(S(=O)(=O)c2cc(Cl)ccc2Cl)CC1)C1CC1` [Example 46, (2S,3R)-3-cyclopropyl-3-(1′-((2,5-dichloro-phenyl)sulfonyl)spiro [chroman-2,4′-piperidin]-7-yl)-2-methyl-propanoic acid], the EC50 falls from 148 nM to 22.6 nM (6.5-fold).

Going from `Cc1nc(C(F)(F)F)c(CN2CCC3(CCc4ccc([C@H](C5CC5)[C@H](C)C(=O)O)cc4O3)CC2)s1` [Example 53, (2S,3R)-3-cyclopropyl-2-methyl-3-(1′-((2-methyl-4-(trifluoromethyl)thiazol-5-yl)methyl)spiro[chroman-2,4′-piperidin]-7-yl)propanoic Acid] to `C[C@H](C(=O)O)[C@H](c1ccc2c(c1)OC1(CC2)CCN(Cc2cn(C)nc2C(F)(F)F)CC1)C1CC1` [Example 72, (2S,3R)-3-cyclopropyl-2-methyl-3-(1′-((1-methyl-3-(trifluoromethyl)-1H-pyrazol-4-yl)methyl)spiro[chroman-2,4′-piperidin]-7-yl)propanoic Acid], the EC50 rises from 107 nM to 995 nM (9.3-fold). The first is the more potent here.

Going from `CC(c1cc(C(F)(F)F)cc(C(F)(F)F)c1)N1CCC2(CCc3ccc([C@H](C4CC4)[C@H](C)C(=O)O)cc3O2)CC1` (stereo partly drawn) [Example 54, (2S,3R)-3-(1′-(1-(3,5-bis(trifluoromethyl)phenyl)ethyl)spiro[chroman-2,4′-piperidin]-7-yl)-3-cyclopropyl-2-methylpropanoic Acid] to `C[C@H](C(=O)O)[C@H](c1ccc2c(c1)OC1(CC2)CCN(c2cc(C(F)(F)F)ccc2C(F)(F)F)CC1)C1CC1` [Example 59, (2S,3R)-3-(1′-(2,5-bis(trifluoromethyl)phenyl)spiro[chroman-2,4′-piperidin]-7-yl)-3-cyclopropyl-2-methylpropanoic Acid], the EC50 falls from 6.47 nM to 3.3 nM (2-fold).

Going from `COc1cc(N2CCC3(CCc4ccc([C@H](C5CC5)[C@H](C)C(=O)O)cc4O3)CC2)c(Cl)cn1` [Example 55, (2S,3R)-3-(1′-(5-chloro-2-methoxypyridin-4-yl)spiro[chroman-2,4′-piperidin]-7-yl)-3-cyclopropyl-2-methylpropanoic Acid] to `C[C@H](C(=O)O)[C@H](c1ccc2c(c1)OC1(CC2)CCN(c2ccnc(C(F)(F)F)n2)CC1)C1CC1` [Example 56, sodium (2S3R)-3-cyclopropyl-2-methyl-3-(1′-(2-(trifluoromethyl)pyrimidin-4-yl)spiro[chroman-2,4′-piperidin]-7-yl)propanoate], the EC50 rises from 7.59 nM to 856 nM (110-fold). The first is the more potent here.

`C[C@H](C(=O)O)[C@H](c1ccc2c(c1)OC1(CC2)CCN(Cc2cc(C#N)ccc2C(F)(F)F)CC1)C1CC1` [Example 60, (2S,3R)-3-(1′-(5-cyano-2-(trifluoromethyl)benzyl)spiro[chroman-2,4′-piperidin]-7-yl)-3-cyclopropyl-2-methylpropanoic Acid] and `Cc1ccc(OC(F)(F)F)c(CN2CCC3(CCc4ccc([C@H](C5CC5)[C@H](C)C(=O)O)cc4O3)CC2)c1` [Example 77, (2S,3R)-3-cyclopropyl-2-methyl-3-(1′-(5-methyl-2-(trifluoromethoxy)benzyl)spiro[chroman-2,4′-piperidin]-7-yl)propanoic acid] are within 1.5-fold of each other in EC50: 17.3 nM for the first, 23.4 nM for the second.

First: C[C@H](C(=O)O)[C@H](c1ccc2c(c1)OC1(CC2)CCN(Cc2cc(Cl)cc3c2OC(C)(C)C3)CC1)C1CC1 [Example 61, sodium (2S3R)-3-(1′-((5-chloro-2,2-dimethyl-2,3-dihydrobenzofuran-7-yl)methyl)-spiro[chroman-2,4′-piperidin]-7-yl)-3-cyclopropyl-2-methylpropanoate]
Second: C[C@H](C(=O)O)[C@H](c1ccc2c(c1)OC1(CC2)CCN(Cc2cc(C3CC3)ccc2OC(F)(F)F)CC1)C1CC1 [Example 76, (2S,3R)-3-cyclopropyl-3-(1′-(5-cyclopropyl-2-(trifluoromethoxy)benzyl)spiro[chroman-2,4′-piperidin]-7-yl)-2-methylpropanoic Acid]
The EC50 of the first is 10-fold higher: 118 nM for the first, 11.7 nM for the second. The second is the more potent here.

Going from `C[C@H](C(=O)O)[C@H](c1ccc2c(c1)OC1(CC2)CCC(N(C)c2cc(C(F)(F)F)ccc2C(F)(F)F)CC1)C1CC1` (stereo partly drawn) [Example 66, (2S,3R)-3-(4′-((2,5-bis (trifluoromethyl)phenyl) (methyl)amino)spiro [chroman-2,1′-cyclohexan]-7-yl)-3-cyclopropyl-2-methylpropanoic acid] to `CC(c1cc(C(F)(F)F)ccc1C(F)(F)F)N(C)C1CC2(CCc3ccc([C@H](C4CC4)[C@H](C)C(=O)O)cc3O2)C1` (stereo partly drawn) [Example 99, (2S,3R)-3-(3′-((1-(2,5-bis(trifluoromethyl)phenyl)ethyl)(methyl)amino)spiro[chroman-2,1′-cyclobutan]-7-yl)-3-cyclopropyl-2-methylpropanoic Acid], the EC50 falls from 4.27 nM to 1.62 nM (2.6-fold).

Compared with `C[C@H](C(=O)O)[C@H](c1ccc2c(c1)OC1(CC2)CCC(N(C)c2cc(C(F)(F)F)ccc2C(F)(F)F)CC1)C1CC1` (stereo partly drawn) [Example 70, (2S,3R)-3-(4′-((2,5-bis(trifluoromethyl)phenyl) (methyl)amino)spiro [chroman-2,1′-cyclohexan]-7-yl)-3-cyclopropyl-2-methylpropanoic acid], `C[C@H](C(=O)O)[C@H](c1ccc2c(c1)OC1(CC2)CC(N[C@H](C)c2cc(C(F)(F)F)ccc2C(F)(F)F)C1)C1CC1` (stereo partly drawn) [Example 91, (2S,3R)-3-(3′-((1-(2,5-bis(trifluoromethyl)phenyl)ethyl)amino)spiro[chroman-2,1′-cyclobutan]-7-yl)-3-cyclopropyl-2-methylpropanoic Acid] is 5-fold higher in EC50: 1.74 nM for the first, 8.62 nM for the second.

Compared with `C[C@H](C(=O)O)[C@H](c1ccc2c(c1)OC1(CC2)CCN(c2ccc3nc(C(F)(F)F)cn3n2)CC1)C1CC1` [Example 71, (2S,3R)-3-cyclopropyl-2-methyl-3-(1′-(2-(trifluoromethyl)imidazo[1,2-b]-pyridazin-6-yl)spiro[chroman-2,4′-piperidin]-7-yl)propanoic Acid], `C[C@H](C(=O)O)[C@H](c1ccc2c(c1)OC1(CC2)CC(N(C)c2ncccc2C(F)(F)F)C1)C1CC1` (stereo partly drawn) [Example 89, (2S,3R)-3-cyclopropyl-2-methyl-3-(3′-(methyl(3-(trifluoromethyl)pyridin-2-yl)amino)spiro[chroman-2,1′-cyclobutan]-7-yl)propanoic Acid] is 42-fold lower in EC50: 545 nM for the first, 13.1 nM for the second.

Compared with `C[C@H](C(=O)O)[C@H](c1ccc2c(c1)OC1(CC2)[C@@H]2CC[C@H]1CN([C@H](C)c1cc(F)ccc1C(F)(F)F)C2)C1CC1` (stereo partly drawn) [Example 84, (2S,3R)-3-cyclopropyl-3-((1R,5S)-3-((R)-1-(5-fluoro-2-(trifluoro-methyl)phenyl)ethyl)-3-azaspiro[bicyclo[3.2.1]oc-tane-8,2′-chroman]-7′-yl)-2-methylpropanoic acid], `C[C@H](C(=O)O)[C@H](c1ccc2c(c1)OC1(CC2)[C@@H]2CC[C@H]1CN([C@@H](C)c1cc(C(F)(F)F)ccc1C(F)(F)F)C2)C1CC1` (stereo partly drawn) [Example 86, (2S,3R)-3-((1R,5S)-3-((S)-1-(2,5-bis(trifluoro-methyl)phenyl)ethyl)-3-azaspiro[bicyclo[3.2.1]oc-tane-8,2′-chroman]-7′-yl)-3-cyclopropyl-2-methylpropanic acid] is 1.6-fold higher in EC50: 28.5 nM for the first, 46.5 nM for the second.

`C[C@H](C(=O)O)[C@H](c1ccc2c(c1)OC1(CC2)CC(N(C)c2ncccc2C(F)(F)F)C1)C1CC1` (stereo partly drawn) [Example 90, (2S,3R)-3-cyclo-propyl-2-methyl-3-(3′-(methyl(3-(trifluoro-methyl)pyridin-2-yl)amino)spiro[chro-man-2,1′-cyclobutan]-7-yl)propanoic acid] and `C[C@H](C(=O)O)[C@H](c1ccc2c(c1)OC1(CC2)CC(N[C@H](C)c2cc(C(F)(F)F)ccc2C(F)(F)F)C1)C1CC1` (stereo partly drawn) [Example 93, (2S,3R)-3-(3′-(((R)-1-(2,5-bis(trifluoro-methyl)phenyl)ethyl)a-mino)spiro[chroman-2,1′-cyclo-butan]-7-yl)-3-cyclopropyl-2-methylpropanic acid] are within 1.5-fold of each other in EC50: 7.24 nM for the first, 5.71 nM for the second.
